In brackets after ≈: the same amount, converted by molar mass. Entries after “also recorded” stand apart in the source; their conditions may differ. Where two headings read alike, the source gives them in different places. Each block holds one compound with its values, some of them ahead of it.
Assays:
Assay type in all cases: physicochemical
[1] = Dynamic vapor sorption (DVS) with post-DVS XRPD; conditions: for Post DVS XRPD (crystalline form after DVS): XRPD of the post-DVS sample
Protocol: Samples were analyzed using an Aquadyne DVS-2 gravimetric water sorption analyzer. The relative humidity was adjusted between 2-95% and the weight of the sample was continuously monitored and recorded with respect to the relative humidity and time.
The material was subjected under Dynamic Vapor Sorption (DVS, FIG. 6).

[2] = Stability of crystalline forms under dry (vacuum, 45° C.) and humid (RH >95%) conditions, XRPD; conditions: for Form change after exposing the dried sample to high humidity conditions (XRPD): after drying at 45° C. under vacuum, then high humidity (RH >95%); for XRPD pattern after drying at 45° C. (under vacuum): dried under vacuum at 45° C.
Protocol: For dry conditions, the sample was dried under vacuum at 45° C. followed by XRPD analysis. Later the sample was subjected to high humidity conditions (RH >95%) followed by XRPD analysis.
The MeOH and DCM solvates of Compound (I) were dried on XRPD plates under vacuum at 45° C. and were analyzed by XRPD the following day.
Pattern E was dried at 45° C. under vacuum overnight and analyzed by XRPD. The following day, it was subjected to high humidity conditions (>95%) and later analyzed by XRPD the next day. […] FIG. 26 illustrates the XRPD comparison of dried and humid samples with Compound (I), Form I, Pattern A.

[3] = Form change on heating or on storage at room temperature, XRPD
[4] = Solubility assessment of Form I, gravimetric, slurried 48 h in solvents/solvent mixtures; conditions: thermodynamic from solid
Protocol: The Solubility of Form I was measured gravimetrically in 15 different solvents and solvent mixtures at 15 and 45° C. About 75 mg of the compound was dispensed in 10 volumes (750 μL) of the solvent/solvent mixture and slurried for 48 h.
The vials were centrifuged. The supernatant was collected and left for slow evaporation under vacuum at 45° C. The solids obtained after evaporation were used to determine the solubility of Form I and analyzed by XRPD for any new forms.

[5] = Solid form stability test (up to 7 days) under high humidity, XRPD
Protocol: In one aspect, provided herein is 2-((2-chlorophenyl)(phenyl)amino)-N-(7-(hydroxyamino)-7-oxoheptyl)pyrimidine-5-carboxamide of Form I (referred to herein as “Form I”). Form I (of Compound (I)) was observed under a polarized microscope and its crystalline nature was determined by using X-ray powder diffraction (XRPD) and Pattern A was assigned to it for identification (See Example 3). The chemical structure of the material was confirmed by proton-nuclear magnetic resonance (^1H-NMR) and the thermal characterization of the material was carried out by differential scanning calorimetry (DSC) and thermal gravimetric analysis (TGA) (see Examples 2 and 3). […] The XRPD analysis of this form including peak identification is found in Example 11 (See FIG. 40).

[6] = Dynamic vapor sorption (DVS) with post-DVS XRPD; conditions: relative humidity between 0-95%
[7] = exposed to high humidity conditions

Post DVS XRPD (crystalline form after DVS) [1]: Pattern H,
Post DVS XRPD (crystalline form after DVS) ([1]; listed as Pattern G): Pattern H
Form change after exposing the dried sample to high humidity conditions (XRPD) [2]: no further form change
XRPD pattern after drying at 45° C. (under vacuum) [2]: Form VIII (Pattern H)
XRPD pattern after drying at 45° C. (under vacuum) ([2]; listed as Pattern G): Pattern H
SMILES: O=C(CCCCCCNC(=O)c1cnc(N(c2ccccc2)c2ccccc2Cl)nc1)NO [Form VII, 2-((2-chlorophenyl)(phenyl)amino)-N-(7-(hydroxyamino)-7-oxoheptyl)pyrimidine-5-carboxamide]

Post DVS XRPD (crystalline form after DVS) [1]: Pattern D,
Post DVS XRPD (crystalline form after DVS) ([1]; listed as Pattern B): Pattern D
Weight change (DVS) [1, 7]: < 1%
XRPD pattern after drying at 45° C. (under vacuum) [2]: Pattern D,
XRPD pattern after drying at 45° C. (under vacuum) ([2]; listed as Pattern B): Pattern D
XRPD pattern after heating ([3]; 130° C. for 30 minutes): Pattern A
SMILES: O=C(CCCCCCNC(=O)c1cnc(N(c2ccccc2)c2ccccc2Cl)nc1)NO [Form II, 2-((2-chlorophenyl)(phenyl)amino)-N-(7-(hydroxyamino)-7-oxoheptyl)pyrimidine-5-carboxamide]

XRPD pattern after drying at 45° C. (under vacuum) [2]: Pattern A
XRPD pattern after storage ([3]; room temperature, reanalyzed after three days): Pattern A
SMILES: O=C(CCCCCCNC(=O)c1cnc(N(c2ccccc2)c2ccccc2Cl)nc1)NO [Pattern J]

Hygroscopicity [1]: low hygroscopicity
XRPD pattern after drying at 45° C. (under vacuum) [2]: Pattern A,
solubility at 48 h ([4]; aqueous with cosolvent or surfactant or cyclodextrin, EtOH:H2O (1:1), temperature not stated, read-out: Solubility (moderately soluble)): 10 to 55 mg/mL (≈ 21.4 to 118 mM)
solubility at 48 h ([4]; aqueous with cosolvent or surfactant or cyclodextrin, acetone:H2O (1:1), temperature not stated, read-out: Solubility (moderately soluble)): 10 to 55 mg/mL (≈ 21.4 to 118 mM)
solubility at 48 h ([4]; organic solvent or mixture, Acetone, 15° C., read-out: Solubility): 2 mg/mL (≈ 4.27 mM)
solubility at 48 h ([4]; organic solvent or mixture, Acetone, 45° C., read-out: Solubility): 11 mg/mL (≈ 23.5 mM)
solubility at 48 h ([4]; organic solvent or mixture, Acetone:H2O (95:5), 15° C., read-out: Solubility): 21 mg/mL (≈ 44.9 mM)
solubility at 48 h ([4]; organic solvent or mixture, Acetone:H2O (95:5), 45° C., read-out: Solubility): 48 mg/mL (≈ 103 mM)
solubility at 48 h ([4]; organic solvent or mixture, Acetonitrile (ACN), 15° C., read-out: Solubility): < 1 mg/mL
solubility at 48 h ([4]; organic solvent or mixture, Acetonitrile (ACN), 45° C., read-out: Solubility): 1 mg/mL (≈ 2.14 mM)
solubility at 48 h ([4]; organic solvent or mixture, DCM, temperature not stated, read-out: Solubility (less soluble)): < 1 mg/mL
solubility at 48 h ([4]; organic solvent or mixture, DMA, temperature not stated, read-out: Solubility (freely soluble)): > 100 mg/mL
solubility at 48 h ([4]; organic solvent or mixture, Dimethylacetamide (DMA), 15° C., read-out: Solubility): > 100 mg/mL
solubility at 48 h ([4]; organic solvent or mixture, Dimethylacetamide (DMA), 45° C., read-out: Solubility): > 100 mg/mL
solubility at 48 h ([4]; organic solvent or mixture, EtOAc, temperature not stated, read-out: Solubility (less soluble)): < 1 mg/mL
solubility at 48 h ([4]; organic solvent or mixture, EtOH, temperature not stated, read-out: Solubility (moderately soluble)): 10 to 55 mg/mL (≈ 21.4 to 118 mM)
solubility at 48 h ([4]; organic solvent or mixture, EtOH:H2O (95:5), 15° C., read-out: Solubility): 18 mg/mL (≈ 38.5 mM)
solubility at 48 h ([4]; organic solvent or mixture, EtOH:H2O (95:5), 45° C., read-out: Solubility): 53 mg/mL (≈ 113 mM)
solubility at 48 h ([4]; organic solvent or mixture, Ethanol (EtOH), 15° C., read-out: Solubility): 11 mg/mL (≈ 23.5 mM)
solubility at 48 h ([4]; organic solvent or mixture, Ethanol (EtOH), 45° C., read-out: Solubility): 39 mg/mL (≈ 83.3 mM)
solubility at 48 h ([4]; organic solvent or mixture, Ethyl acetate (EtOAc), 15° C., read-out: Solubility): < 1 mg/mL
solubility at 48 h ([4]; organic solvent or mixture, Ethyl acetate (EtOAc), 45° C., read-out: Solubility): 1 mg/mL (≈ 2.14 mM)
solubility at 48 h ([4]; organic solvent or mixture, Heptane (HEP), 15° C., read-out: Solubility): < 1 mg/mL
solubility at 48 h ([4]; organic solvent or mixture, Heptane (HEP), 45° C., read-out: Solubility): < 1 mg/mL
solubility at 48 h ([4]; organic solvent or mixture, IPA, temperature not stated, read-out: Solubility (slightly soluble)): ~2 mg/mL (≈ 4.27 mM)
solubility at 48 h ([4]; organic solvent or mixture, Isopropanol (IPA), 15° C., read-out: Solubility): 1 mg/mL (≈ 2.14 mM)
solubility at 48 h ([4]; organic solvent or mixture, Isopropanol (IPA), 45° C., read-out: Solubility): 12 mg/mL (≈ 25.6 mM)
solubility at 48 h ([4]; organic solvent or mixture, MeOH, temperature not stated, read-out: Solubility (freely soluble)): > 100 mg/mL
solubility at 48 h ([4]; organic solvent or mixture, Methanol (MeOH), 15° C., read-out: Solubility): 11 mg/mL (≈ 23.5 mM)
solubility at 48 h ([4]; organic solvent or mixture, Methanol (MeOH), 45° C., read-out: Solubility): > 100 mg/mL
solubility at 48 h ([4]; organic solvent or mixture, TBME, temperature not stated, read-out: Solubility (less soluble)): < 1 mg/mL
solubility at 48 h ([4]; organic solvent or mixture, TFE, temperature not stated, read-out: Solubility (freely soluble)): > 100 mg/mL
solubility at 48 h ([4]; organic solvent or mixture, THF, temperature not stated, read-out: Solubility (moderately soluble)): 10 to 55 mg/mL (≈ 21.4 to 118 mM)
solubility at 48 h ([4]; organic solvent or mixture, Tert-butyl methyl ether (TBME), 15° C., read-out: Solubility): < 1 mg/mL
solubility at 48 h ([4]; organic solvent or mixture, Tert-butyl methyl ether (TBME), 45° C., read-out: Solubility): 2 mg/mL (≈ 4.27 mM)
solubility at 48 h ([4]; organic solvent or mixture, Tetrahydrofuran (THF), 15° C., read-out: Solubility): 13 mg/mL (≈ 27.8 mM)
solubility at 48 h ([4]; organic solvent or mixture, Tetrahydrofuran (THF), 45° C., read-out: Solubility): 50 mg/mL (≈ 107 mM)
solubility at 48 h ([4]; organic solvent or mixture, acetone, temperature not stated, read-out: Solubility (slightly soluble)): ~2 mg/mL (≈ 4.27 mM)
solubility at 48 h ([4]; organic solvent or mixture, acetonitrile, temperature not stated, read-out: Solubility (less soluble)): < 1 mg/mL
solubility at 48 h ([4]; organic solvent or mixture, heptane, temperature not stated, read-out: Solubility (less soluble)): < 1 mg/mL
solubility at 48 h ([4]; Water (H2O), 15° C., read-out: Solubility): < 1 mg/mL
solubility at 48 h ([4]; Water (H2O), 45° C., read-out: Solubility): < 1 mg/mL
solubility at 48 h ([4]; water, temperature not stated, read-out: Solubility (less soluble)): < 1 mg/mL
solubility at 48 h ([4]; trifluoroethanol (TFE), organic solvent or mixture, Trifluoro Ethanol (TFE), 15° C., read-out: Solubility): > 100 mg/mL
solubility at 48 h ([4]; trifluoroethanol (TFE), organic solvent or mixture, Trifluoro Ethanol (TFE), 45° C., read-out: Solubility): > 100 mg/mL
Moisture uptake (DVS) [6]: less than 0.2%
SMILES: O=C(CCCCCCNC(=O)c1cnc(N(c2ccccc2)c2ccccc2Cl)nc1)NO [Form I, 2-((2-chlorophenyl)(phenyl)amino)-N-(7-(hydroxyamino)-7-oxoheptyl)pyrimidine-5-carboxamide]
Post DVS XRPD (crystalline form after DVS) [1]: no change in the crystalline form; also recorded: Pattern A,
Solid form stability under high humidity (XRPD) [5]: stability of Form I up to seven days; also recorded: stable under high humidity up to a week

Post DVS XRPD (crystalline form after DVS) [1]: Pattern D,
Post DVS XRPD (crystalline form after DVS) ([1]; listed as Pattern C): Pattern D
Weight change (DVS) [1, 7]: around 1.5%
XRPD pattern after drying at 45° C. (under vacuum) [2]: Pattern D,
XRPD pattern after drying at 45° C. (under vacuum) ([2]; listed as Pattern C): Pattern D
SMILES: O=C(CCCCCCNC(=O)c1cnc(N(c2ccccc2)c2ccccc2Cl)nc1)NO [Form III, 2-((2-chlorophenyl)(phenyl)amino)-N-(7-(hydroxyamino)-7-oxoheptyl)pyrimidine-5-carboxamide]

Post DVS XRPD (crystalline form after DVS) [1]: Pattern D,
Post DVS XRPD (crystalline form after DVS) ([1]; listed as Pattern I): Pattern D
XRPD pattern after drying at 45° C. (under vacuum) [2]: Pattern D (Form IV)
XRPD pattern after drying at 45° C. (under vacuum) ([2]; listed as Pattern I): Pattern D
SMILES: O=C(CCCCCCNC(=O)c1cnc(N(c2ccccc2)c2ccccc2Cl)nc1)NO [Form IX, 2-((2-chlorophenyl)(phenyl)amino)-N-(7-(hydroxyamino)-7-oxoheptyl)pyrimidine-5-carboxamide]

Post DVS XRPD (crystalline form after DVS) [1]: Pattern F, Form VI
Post DVS XRPD (crystalline form after DVS) ([1]; listed as Pattern E): Pattern F
Moisture uptake (DVS) [1, 7]: < 0.15%
Form change after exposing the dried sample to high humidity conditions (XRPD) [2]: no further form change
XRPD pattern after drying at 45° C. (under vacuum) [2]: Form VI, Pattern F
XRPD pattern after drying at 45° C. (under vacuum) ([2]; listed as Pattern E): Pattern F (Form VI)
SMILES: O=C(CCCCCCNC(=O)c1cnc(N(c2ccccc2)c2ccccc2Cl)nc1)NO [Form V, 2-((2-chlorophenyl)(phenyl)amino)-N-(7-(hydroxyamino)-7-oxoheptyl)pyrimidine-5-carboxamide]
